# Like-named read-outs stand apart in the source and are kept apart here.
# Columns and labels:
# bcl-2 promoter = bcl-2 promoter activity assay in transfected N2a cells; format: cell-based
# Procedure: Promoter Activity Assay: […] Vincent Bours (University of Liege, Belgium) (Reference 41). The bcl-2 Luc-reporter plasmids containing the fragment from -3934 to -8 from the bcl-2 promoter was also generous gift from Dr. L. Boxer (Stanford University, California). […] All promoter assays were performed in duplicates. Enzyme activities were normalized to the protein concentration of the extracts.
# G93A transgenic ALS mice = details: for Survival (Days ± SD) / Percentile change (survival extension): G93A mice; for Percentile change (survival extension): vs 0 mg/kg/d
# Procedure: We have standardized criteria to ensure homogeneity of the cohorts within the testing groups. Mice were randomized from 24 litters all within 4 days from the same ‘f’ generation. Body weights were taken at 20 days and mice were equally distributed according to weight within each experimental cohort. Mice under 8 g at 20 days were excluded from the experiments.
# Intraperitoneal Dosing: Based upon previous studies (Reference 29), a dose response study was performed, treating groups (n=20) of wild type and G93A mice with 200, 600, 1,200, 2,000 and 5,000 mg/kg by daily intraperitoneal injection (100 μl) of sodium butyrate (Acros Organics/Fisher Scientific, Fairlawn, N.J.) dissolved in PBS and made fresh daily. Additional groups of mice were treated in the same manner with 100, 200, 400, 600, and 800 mg/kg of phenylbutyrate (Triple Crown America, Inc. Perkasie, Pa.). Control groups of G93A mice were treated with PBS injection (vehicle). Approximately 260 mice were used for behavioral and survival analyses.
# Motor performance and ability to feed was closely monitored and used as the basis for determining when to euthanize the mice. The criterion for euthanization was the point in time the ALS mice were unable to right themselves after being placed on their back for 30 seconds. Some deaths occurred overnight and were recorded the following morning.
# G93A mice [1] = experiment: Motor performance on rotarod; format: in vivo; details: most efficacious doses, after 13 wks through endstage disease
# G93A mice [2] = details: 120 days; for reactive astrogliosis (GFAP immunostaining): G93A mice spinal cord sections; for gross spinal cord atrophy: G93A mice
# G93A mice [3] = details: at 120 days, PBS-treated 4,680.6±847.4, WT 11,580.9±221.2
# Body weight = format: in vivo; details: G93A mice, beginning after 100 days
# ALS mice = details: References 10 and 11; cited from earlier work
# humans with ALS = details: cited from earlier work
# NF-κB p50 [4] = details: N2a cells, 1 mM for three hours
# Procedure: (§1) Immunofluorescence Staining and Microscopy: Indirect labeling methods were used to determine plκB and NF-κB p50 in N2aCells. […] The cells were washed with warm PBS and fixed at room temperature for 15 min with 4% paraformaldehyde (PFA). After washing with PBS, fixed cells were incubated with blocking solution containing 0.3% Triton X-100, 5% bovine serum albumin, and 3% goat serum for 1 hr, followed by incubation with primary antibodies overnight at 4° C. After three washes with PBS, the cells were incubated for 1 hr with FITC-conjugated (1:200 dilution) and Cy3-conjugated secondary antibody (1:200 dilution; Vector Laboratories, Burlingame, Calif.). The slides were washed three times with PBS and mounted with fluorochrome mounting solution. Images were analyzed using a fluorescence microscope. Control experiments were performed in the absence of primary antibody.
# plκB [5] = details: N2a cells, 1 mM for three hours
# Procedure: as §1
# [6] = system: N2a mutant SOD (G41D) cells; details: 1 mM, 12 hr pretreatment, X/XO 6 hr, MTT, vs untreated cells
# Procedure: (§2) N2a Cell Culture: N2a monolayer cell cultures were grown in 50% DMEM and 50% OPTI-MEM with 5% fetal bovine serum (FBS), 1% antibiotic antimycotic, and 400 microgram/ml of the neomycin analog G418. Differentiation was induced within 3 days in serum-free medium. The SOD1 mutation (G41D) was introduced into a plasmid clone of human genomic SOD1 (pHGSOD-SVneo). Stably transfected lines of N2a cells were selected with the drug G418, after transfection with SOD1 pHGSOD-SVneo plasmids. Differentiated cells were incubated without FBS for 6 days before treatments. […] Cell viability was measured by MTT assay.
# WT and WT-SOD1 N2a cells = details: MTT
# Procedure: as §2
# bcl-2 [7] = details: spinal cord tissue cultures, 1 mM, time-dependent
# Procedure: (§3) Freshly isolated spinal cords from wild type and G93A mice were minced and incubated with neurobasal medium for 12 hr. […] After incubation, the tissues were harvested and equally divided for Western blot analysis and RT-PCR.
# (§4) Western Blotting: Tissue lysates and subcellular fractions were prepared using an ice-cold cell extraction buffer containing 50 mM Tris-HCl, pH 7.4, 150 mM NaCl, 2 mM EDTA, 1% Triton X-100, 1 mM phenylmethylsulfonyl fluoride (PMSF), 10 mg/ml leupeptin, 1 μM pepstatin, 1 mM N-ethylmleimide (NEM), 2 mM Na3VO4, 20 mM sodium pyrophosphate, and 50 mM NaF). Lysates were centrifuged at 15,000 rpm at 4° C. for 30 min. Then the protein concentration was quantified and samples were boiled for 10 min with Laemmli buffer (15 is 100 mM Tris-HCL, pH 6.8, 4% SDS, 200 mM dithiothreitol, 20% glycerol, 2% SDS, 0.2% bromophenol blue, 10 μg/ml aprotinin, 10 μg/ml leupeptin) at 100° C. In general, 30 μg of proteins were electrophoresed on 10% SDS-polyacrylamide gel and transferred to nitrocellulose membrane. Membranes were blocked in 5% skim milk in TBST (Tris, pH 7.4; 150 mM NaCl; 0.05% Tween 20) for 30 min at room temperature. Blots were probed with primary antibodies overnight at 4 ° C. […] HRP-conjugated secondary IgG anti-Rabbit IgG and anti-mouse IgG (Bio-Rad Laboratories, Inc., Hercules, Calif.) were used at 1:5000 and 1:3000, respectively. […]
# plκB [8] = details: spinal cord tissue cultures, 1 mM, time-dependent
# Procedure: as §3, §4
# [9] = system: histone 3 and histone 4 acetylation; details: treated WT and G93A mice
# acetylated NF-κB p50 = details: 1 mM
# Procedure: as §3
# Detection of Acetylated NF-κB p50: For detection of the levels of acetylated NF-κB p50, 200 μg of nuclear extracts were diluted to a total volume of 500 microliter in lysis buffer (100 mM Tris buffer, pH7.4, containing 1% Triton X-100, 150 mM NaCl, 1 mM sodium orthovanadate, 5 mM sodium fluoride, 3 mM PMSF, 3 mM DTT, 0.5 mg/m leupeptin, and 10 mg/ml aprotinin) and incubated with 7 μl of goat anti-p50 antibody (Santa Cruz, Santa Cruz, Calif.) by shaking overnight at 4° C. Thirty-two μl of protein A-sepharose (50% v/v slurry) was added to lysates and left for 1 hr at 4° C. Beads were collected by centrifugation and washed twice with lysis buffer, once in PBS and finally resuspended with 40 μl of 2×SDS loading buffer. Samples were boiled and a 20 μl aliquot was separated in a 10% SDS-PAGE. After transferring the proteins to a nitrocellulose membrane acetylated p50 proteins were detected in Western blot analysis using an acetyl lysine-specific antibody (AbCam, Cambridge, Mass. at 1:1000).
# bcl-2 mRNA = details: spinal cord tissue cultures, ex vivo administration
# Procedure: as §3
# G93A mice [10] = details: at 17 weeks, vs untreated G93A mice
# Procedure: Clinical Assessment: Both motor performance and body weight were measured throughout the study. Training sessions were given on days 21 and 22 to acclimate the mice to the rotarod apparatus (Columbus Instruments, Columbus, Ohio). Motor performance (constant rotation at 16 rpm) was assessed weekly from 23-100 days of age and twice weekly from 101 days of age. Three 60 sec trials were given during each session and averaged. Body weights were recorded twice weekly at the same time of day. Gait analysis was performed measuring stride length (Reference 49).
# activated caspase 9 = details: G93A mice, 120 days, vs untreated
# Procedure: (§5) Western Blotting: Tissue lysates and subcellular fractions were prepared using an ice-cold cell extraction buffer containing 50 mM Tris-HCl, pH 7.4, 150 mM NaCl, 2 mM EDTA, 1% Triton X-100, 1 mM phenylmethylsulfonyl fluoride (PMSF), 10 mg/ml leupeptin, 1 μM pepstatin, 1 mM N-ethylmleimide (NEM), 2 mM Na3VO4, 20 mM sodium pyrophosphate, and 50 mM NaF). Lysates were centrifuged at 15,000 rpm at 4° C. for 30 min. Then the protein concentration was quantified and samples were boiled for 10 min with Laemmli buffer (15 is 100 mM Tris-HCL, pH 6.8, 4% SDS, 200 mM dithiothreitol, 20% glycerol, 2% SDS, 0.2% bromophenol blue, 10 μg/ml aprotinin, 10 μg/ml leupeptin) at 100° C. In general, 30 μg of proteins were electrophoresed on 10% SDS-polyacrylamide gel and transferred to nitrocellulose membrane. Membranes were blocked in 5% skim milk in TBST (Tris, pH 7.4; 150 mM NaCl; 0.05% Tween 20) for 30 min at room temperature. Blots were probed with primary antibodies overnight at 4 ° C. […] HRP-conjugated secondary IgG anti-Rabbit IgG and anti-mouse IgG (Bio-Rad Laboratories, Inc., Hercules, Calif.) were used at 1:5000 and 1:3000, respectively. HL-60 Cell lysates were used as positive controls (Upstate Biotechnology, Lake Placid, N.Y.).
# bcl-2 [11] = details: G93A mice, vs vehicle-treated
# Procedure: as §5
# NF-κB p50 [12] = details: G93A mice, vs WT and vehicle-treated
# Procedure: as §5
# activated caspase 3 = details: G93A mice, 120 days, vs untreated
# Procedure: as §5
# cytochrome c = details: G93A spinal cord, 120 days, vs PBS-treated
# Procedure: as §5
# plκB [13] = details: G93A mice
# Procedure: as §5
compound,measurement,setting,value
COc1cc(/C=C/C(=O)CC(=O)/C=C/c2ccc(O)c(OC)c2)ccc1O [Curcumin],effect on PBA-induced bcl-2 promoter activity,"bcl-2 promoter; N2a cells, with PBA",dose-dependently blocked
"CCCC(=O)[O-].[Na+] [NAB, sodium butyrate]",Survival (Days ± SD),G93A transgenic ALS mice; 200 mg/kg/d i.p.,129.2 ± 4.5 days
same,Survival (Days ± SD),G93A transgenic ALS mice; 600 mg/kg/d i.p.,141.8 ± 5.9 days
same,Percentile change (survival extension),G93A transgenic ALS mice; 600 mg/kg/d i.p.,12.5%
same,Survival (Days ± SD),G93A transgenic ALS mice; 1200 mg/kg/d i.p.,151.3 ± 6.8 days
same,Percentile change (survival extension),G93A transgenic ALS mice; 1200 mg/kg/d i.p.,20%
same,motor performance (rotarod),G93A mice [1],significantly improved
same,reactive astrogliosis (GFAP immunostaining),G93A mice [2],reduced
same,gross spinal cord atrophy,G93A mice [2]; 1.2 g/kg/d,ameliorated
same,time to death (mice became moribund and died),mice; 2 g/kg/d i.p.,1 to 9 days
same,time to sudden death,mice; 4 g/kg/d i.p.,0.5 to 1.0 h
same,"estimated number of ventral horn neurons, lumbar cord",G93A mice [3]; 1.2 g/kg/d i.p. from 21 days,"9,604.4±346.2"
same,body weight loss,Body weight,significantly reduced
[O-][n+]1cccc(/C(Cl)=N/OC[C@H](O)CN2CCCCC2)c1 [arimoclomal],survival extension,ALS mice,22%
Nc1nc2ccc(OC(F)(F)F)cc2s1 [riluzole],extension of life,humans with ALS,10-15%
sodium phenylbutyrate [PBA],Survival (Days ± SD),G93A transgenic ALS mice; 200 mg/kg/d i.p.,136.5 ± 5.5 days
same,Percentile change (survival extension),G93A transgenic ALS mice; 200 mg/kg/d i.p.,8.6%
same,Survival (Days ± SD),G93A transgenic ALS mice; 400 mg/kg/d i.p.,153.2 ± 6.4 days
same,Percentile change (survival extension),G93A transgenic ALS mice; 400 mg/kg/d i.p.,21.9%
same,survival benefit,"G93A transgenic ALS mice; transgenic SOD1 mice, this study, dose not stated",22%
same,nuclear translocation of NF-κB p50 immunofluorescence,NF-κB p50 [4],increased
same,cytosolic plκB immunofluorescence,plκB [5],increased
same,improvement of cell viability,[6],34.7%
same,protection against X/XO-induced cell death,WT and WT-SOD1 N2a cells,protects
same,motor performance (rotarod),G93A mice [1],significantly improved
same,reactive astrogliosis (GFAP immunostaining),G93A mice [2],reduced
same,gross spinal cord atrophy,G93A mice [2]; 400 mg/kg/d,ameliorated
same,bcl-2 protein,bcl-2 [7],increased
same,plκB protein,plκB [8],increased
same,histone 3 and histone 4 acetylation (Western blot),[9],markedly increased
same,morbidity and mortality,mice; 600 mg/kg/d i.p.,morbidity and mortality
same,morbidity and mortality,mice; 800 mg/kg/d i.p.,morbidity and mortality
same,increase of bcl-2 promotor activity,bcl-2 promoter; N2a cells transfected with bcl-2 reporter plasmids,90%
same,induction of bcl-2 promotor activity,"bcl-2 promoter; N2a cells transfected with bcl-2 reporter plasmids, after 24 h of incubation",approximately 2 fold
same,transactivation of wild type κB site bcl-2 promotor,"bcl-2 promoter; N2a cells, transfection assay",transactivates
same,time of induced NF-κBp50 acetylation,acetylated NF-κB p50; spinal cord tissue cultures from G93A mice,3 to 6 h
same,time of induced NF-κBp50 acetylation,acetylated NF-κB p50; spinal cord tissue cultures from WT mice,6 to 24 h
same,mRNA upregulation of bcl-2,bcl-2 mRNA,induced at 3 hours and sustained until 12 hours
same,stride length,G93A mice [10],markedly improved
same,activated caspase 9 (Western blot),activated caspase 9,significantly reduces
same,Bcl-2 expression in spinal cord sections,bcl-2 [11],restored to WT levels
same,expression of NF-κBp50,NF-κB p50 [12],Marked increased expression
same,activated caspase 3 (Western blot),activated caspase 3,significantly reduces
same,release of cytochrome c into the cytosol of neurons,cytochrome c,dramatic reduction
same,phosphorylation of lκB in the ventral horn,plκB [13],increased
same,"estimated number of ventral horn neurons, lumbar cord",G93A mice [3]; 400 mg/kg/d i.p. from 21 days,"10,378.4±304.4"
same,body weight loss,Body weight,significantly reduced

# Reference: US20060135612A1, “Method of ameliorating or abrogating the effects of a neurodegenerative disorder, such as amyotrophic lateral sclerosis (ALS), by using a HDAC inhibiting agent” (U.S. Department of Veterans Affairs, priority 2004, published 2006)
